Four compounds from ChEMBL document CHEMBL1158131, “Daryamides A-C, weakly cytotoxic polyketides from a marine-derived actinomycete of the genus Streptomyces strain CNQ-085” (J Nat Prod, 2006) can be followed below.

In brackets after ≈: the same amount, converted by molar mass. Activity calls are given as the source filed them.

One experiment has as its system Candida albicans. Description: Antifungal activity against Candida albicans. It is filed as functional.
For a further experiment, the system named is HCT-116. Description: Cytotoxicity against human HCT116 cells. The class given is functional, cell-based.
The next experiment relates to Staphylococcus aureus. Briefly: Antibacterial activity against methicillin-resistant Staphylococcus aureus. The class given is functional, organism-based.

Regarding `CC(C)/C=C/C=C/C(=O)NC1=CC(O)(CCC(N)=O)C=CC1=O` (configuration not stated) [DARYAMIDE C], the outcome with Candida albicans and in the experiment with Staphylococcus aureus was inactive. The same compound registered an IC50 in the experiment with HCT-116 of 10 µg/mL (≈ 31.5 µM).

On to `CC(C)C/C=C/C=C/C(N)=O`, for which the result with Candida albicans and in the experiment with Staphylococcus aureus was inactive. This compound also displayed an IC50 in the experiment with HCT-116 of 21.7 µg/mL (≈ 142 µM).

In turn, `CC(C)C/C=C/C=C/C(=O)NC1=C[C@@](O)(CCC(N)=O)[C@H](O)CC1=O` [DARYAMIDE A] returned an MIC against Candida albicans of 62.5 µg/mL (≈ 178 µM). The compound further came in with a half-inhibitory concentration (IC50) in the experiment on HCT-116 of 3.15 µg/mL (≈ 8.99 µM). Moreover, the result in the experiment on Staphylococcus aureus was inactive.

In turn, `CC(C)C/C=C/C=C/C(=O)NC1=CC(O)(CCC(N)=O)C=CC1=O` (configuration not stated) [DARYAMIDE B] displayed an MIC against Candida albicans of 125 µg/mL (≈ 376 µM). In the experiment on HCT-116, this compound displayed a half-inhibitory concentration (IC50) of 9.99 µg/mL (≈ 30.1 µM). For the same compound, the outcome in the experiment with Staphylococcus aureus was inactive.

The term IC50 denotes the concentration needed to halve the response being measured. Read a high IC50 as a need for much substance. In general, MIC refers to the smallest concentration in the dilution series that meets the test's criterion for growth inhibition.
